{
  "source": "patent US20230382871A1",
  "about": "“CSF1R KINASE INHIBITOR AND USE THEREOF” (SHANGHAI INSTITUTE OF MATERIA MEDICA, CHINESE ACADEMY OF …, priority 2020, published 2023)",
  "key": {"[1]": {"test_system": "mouse astrocytoma DBT subcutaneous xenografts", "experiment": "Mouse astrocytoma DBT subcutaneous tumor model, alone or combined with anti-PD-1 antibody", "assay_type": "in vivo, BALB/c mice", "settings": "alone, 5 mg/kg po twice a day, 28 days", "experimental": "Mouse astrocytoma DBT cell suspensions were injected subcutaneously into the right axillary fossa of BALB/c mice under aseptic conditions. The diameters of the subcutaneous xenografts in nude mice were measured with a vernier caliper. The animals were randomly grouped after the xenografts reached an average volume of 100 to 200 mm^3. Compound I was administered orally at a dose of 5 mg/kg (alone or in combination with an anti-PD-1 antibody) twice a day for 28 consecutive days. An anti-PD-1 antibody (Bio X Cell, InVivoMAb anti-mouse PD-1 (CD279) (cat. No. BE0146)) was administered intraperitoneally at a dose of 10 mg/kg (alone or in combination with Compound I) once every three days for 28 consecutive days. Throughout the experiment, the diameters of the xenografts were measured twice a week and the mice were weighed at the same time. The tumor volume (TV) was calculated as TV=½×a×b^2 where “a” and “b” denote the length and width of a tumor, respectively. The relative tumor volume (RTV) was calculated from the measurement results with the calculation formula RTV=Vt/V0, in which V0 is the tumor volume measured upon administration after grouping (i.e., D0) and Vt is the tumor volume from each measurement.\nFor all dose groups, n=9. The experimental data were analyzed for significant differences using the t-test. […]"}, "[2]": {"test_system": "phosphorylated AKT (p-AKT) in BMDM", "experiment": "Western blot of CSF1-stimulated AKT phosphorylation in BMDM", "assay_type": "cell-based", "settings": "Mus musculus, 100 nM, 2 h, CSF1 50 ng/mL 15 min", "experimental": "(§1) Bone marrow-derived macrophages, after induction by CSF1 for 5 to 7 days, were centrifuged to remove the previous medium. 2 mL of a serum-free medium was added. […] CSF1 factor was added at a final concentration of 50 ng/mL for stimulation for 15 minutes. The culture medium was discarded, and cells were washed three times with pre-cooled PBS. Then, the cells were lysed by adding 1×SDS gel loading buffer. The cell lysates were heated in a boiling water bath for 15 min, and then stored at −20° C.\n(§2) A protein sample as described above was subjected to SDS-PAGE electrophoresis. Then, the protein was transferred to a nitrocellulose membrane using a semi-dry electrotransfer system. The nitrocellulose membrane was placed in a blocking solution (5% skim milk in TBS-T) and incubated for 2 h at room temperature. Then, the membrane was allowed to react with a primary antibody overnight at 4° C. After the membrane was washed with TBS-T for three times with 15 min each time, the membrane was allowed to react in a secondary antibody dilution at room temperature for 1-2 h. […]\n(§3) The inhibitory effect of Compound I on CSF1R and its signaling pathway in mouse primary macrophages was detected by immunoblotting assays. Each experiment was independently repeated three times and all experimental results were quantified. […]"}, "[3]": {"test_system": "phosphorylated CSF1R (p-CSF1R) in BMDM", "experiment": "Western blot of CSF1-stimulated CSF1R phosphorylation in BMDM", "assay_type": "cell-based, mouse", "experimental": "as §1, §2, §3"}, "[4]": {"test_system": "human glioma U87MG subcutaneous xenografts", "experiment": "Human glioma U87MG subcutaneous xenografts in nude mice", "assay_type": "in vivo, BALB/c nude mice", "settings": "for Body Weight (g) D 21 / RTV (mean ± SD) / TV (mm^3, mean ± SD) D 21: D 21; for T/C (%): Day 21", "experimental": "BALB/c nude female mice of 3-4 weeks old were used, and were provided by […] […] OF MATERIA MEDICA, CHINESE ACADEMY OF SCIENCES.\nHuman glioma U87MG cells were subcutaneously inoculated into the right axillary fossa of a nude mouse (5×10^6 cells/mouse). After a xenograft was formed, the tumor was transferred to a nude mouse for 1 passage.\nTumor tissues at the vigorous growth stage were removed and cut into pieces of approximately 1.5 mm^3. The tumor fragments were inoculated subcutaneously into the right axillary fossa of nude mice under aseptic conditions. The diameters of the subcutaneous xenografts in nude mice were measured with a vernier caliper. The animals were randomly grouped after the xenografts reached an average volume of about 90 mm^3. Compound I was administered orally at doses of 40 mg/kg, 20 mg/kg and 10 mg/kg twice a day for 21 consecutive days. An equal volume of a blank preparation was administered orally twice a day for 21 consecutive days. The positive control drug Axitinib was administered orally at a dose of 40 mg/kg group twice a day for 21 consecutive days. An equal volume of water for injection was administered to the animals in the solvent group. Throughout the experiment, the diameters of the xenografts were measured twice a week and the mice were weighed at the same time. The tumor volume (TV) was calculated as TV=½×a×b^2, where “a” and “b” denote the length and width of a tumor, respectively. The relative tumor volume (RTV) was calculated from the measurement results with the calculation formula RTV=Vt/V0, in which V0 is the tumor volume measured upon administration after grouping (i.e., D0) and Vt is the tumor volume from each measurement. The evaluation index of anti-tumor activity is the relative tumor proliferation rate T/C (%), which is calculated as T/C (%)=(TRTV/CRTV)×100%, in which TRTV denotes the RTV from the treatment group and CRTV denotes the RTV from solvent group."}, "[5]": {"biological_target": "recombinant CSF1R kinase (Homo sapiens (Human), UniProt P07333)", "sequence (P07333 20-972)": "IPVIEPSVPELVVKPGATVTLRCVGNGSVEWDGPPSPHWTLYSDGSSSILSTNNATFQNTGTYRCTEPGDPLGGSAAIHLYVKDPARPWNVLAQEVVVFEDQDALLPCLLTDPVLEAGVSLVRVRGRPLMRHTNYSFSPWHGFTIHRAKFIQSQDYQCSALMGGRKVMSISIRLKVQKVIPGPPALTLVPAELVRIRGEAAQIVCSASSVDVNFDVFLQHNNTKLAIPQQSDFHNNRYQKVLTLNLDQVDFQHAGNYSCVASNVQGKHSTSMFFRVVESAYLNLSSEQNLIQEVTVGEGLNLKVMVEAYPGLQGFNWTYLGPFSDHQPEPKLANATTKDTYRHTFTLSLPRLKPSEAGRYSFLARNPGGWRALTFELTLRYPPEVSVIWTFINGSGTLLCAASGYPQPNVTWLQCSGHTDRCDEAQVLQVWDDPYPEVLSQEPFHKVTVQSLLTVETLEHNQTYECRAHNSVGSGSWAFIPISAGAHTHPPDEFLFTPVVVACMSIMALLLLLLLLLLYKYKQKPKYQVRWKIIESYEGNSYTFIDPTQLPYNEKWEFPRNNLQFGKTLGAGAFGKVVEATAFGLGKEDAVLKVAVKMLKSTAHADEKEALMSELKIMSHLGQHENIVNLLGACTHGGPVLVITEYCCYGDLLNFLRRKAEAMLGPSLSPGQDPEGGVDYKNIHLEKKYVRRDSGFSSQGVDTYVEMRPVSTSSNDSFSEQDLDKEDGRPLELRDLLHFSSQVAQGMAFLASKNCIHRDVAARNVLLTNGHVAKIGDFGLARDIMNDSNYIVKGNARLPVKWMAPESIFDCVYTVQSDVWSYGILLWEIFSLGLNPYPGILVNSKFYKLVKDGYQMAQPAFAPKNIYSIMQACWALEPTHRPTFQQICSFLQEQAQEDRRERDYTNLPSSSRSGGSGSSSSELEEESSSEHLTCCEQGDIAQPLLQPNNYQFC", "experiment": "CSF1R kinase activity ELISA assay", "assay_type": "biochemical", "settings": "poly(Glu, Tyr)4:1 substrate, ATP 5 μM, read-out: IC50, inhibition of CSF1R kinase activity"}},
  "data": [
    {"smiles": "Cc1cc(NC(=O)c2cccc3cc(-c4cccc5[nH]nc(N)c45)ccc23)ccc1F", "note": "[Compound I]", "values": [
      {"measurement": "in vivo growth of DBT tumors", "setting": "[1]", "result": "no significant inhibitory activity"},
      {"measurement": "inhibition at 0.1 µM", "setting": "[2]", "result": 64.4, "unit": "%"},
      {"measurement": "inhibition at 0.1 µM", "setting": "[3]; Mus musculus, 100 nM, 2 h, CSF1 50 ng/mL 15 min", "result": 57.3, "unit": "%"},
      {"measurement": "CSF1 stimulated phosphorylation levels of CSF1R and AKT", "setting": "[3]; immunoblotting", "result": "inhibited in a dose-dependent manner"},
      {"measurement": "Body Weight (g) D 0", "setting": "[4]; 10 mg/kg bid × 21 po", "result": 15.7, "unit": "g"},
      {"measurement": "TV (mm^3, mean ± SD) D 0", "setting": "[4]; 10 mg/kg bid × 21 po", "result": "87 ± 17", "unit": "mm^3"},
      {"measurement": "Body Weight (g) D 21", "setting": "[4]; 10 mg/kg bid × 21 po", "result": 17.3, "unit": "g"},
      {"measurement": "RTV (mean ± SD)", "setting": "[4]; 10 mg/kg bid × 21 po", "result": "3.57 ± 1.06"},
      {"measurement": "TV (mm^3, mean ± SD) D 21", "setting": "[4]; 10 mg/kg bid × 21 po", "result": "302 ± 72", "unit": "mm^3"},
      {"measurement": "T/C (%)", "setting": "[4]; 10 mg/kg bid × 21 po", "result": 11.91, "unit": "%"},
      {"measurement": "Body Weight (g) D 0", "setting": "[4]; 20 mg/kg bid × 21 po", "result": 16.7, "unit": "g"},
      {"measurement": "TV (mm^3, mean ± SD) D 0", "setting": "[4]; 20 mg/kg bid × 21 po", "result": "87 ± 17", "unit": "mm^3"},
      {"measurement": "Body Weight (g) D 21", "setting": "[4]; 20 mg/kg bid × 21 po", "result": 16.9, "unit": "g"},
      {"measurement": "RTV (mean ± SD)", "setting": "[4]; 20 mg/kg bid × 21 po", "result": "2.44 ± 1.58"},
      {"measurement": "TV (mm^3, mean ± SD) D 21", "setting": "[4]; 20 mg/kg bid × 21 po", "result": "200 ± 100", "unit": "mm^3"},
      {"measurement": "T/C (%)", "setting": "[4]; 20 mg/kg bid × 21 po", "result": 8.14, "unit": "%"},
      {"measurement": "Body Weight (g) D 0", "setting": "[4]; 40 mg/kg bid × 21 po", "result": 17.0, "unit": "g"},
      {"measurement": "TV (mm^3, mean ± SD) D 0", "setting": "[4]; 40 mg/kg bid × 21 po", "result": "87 ± 15", "unit": "mm^3"},
      {"measurement": "Body Weight (g) D 21", "setting": "[4]; 40 mg/kg bid × 21 po", "result": 17.6, "unit": "g"},
      {"measurement": "RTV (mean ± SD)", "setting": "[4]; 40 mg/kg bid × 21 po", "result": "2.93 ± 0.50"},
      {"measurement": "TV (mm^3, mean ± SD) D 21", "setting": "[4]; 40 mg/kg bid × 21 po", "result": "251 ± 37", "unit": "mm^3"},
      {"measurement": "T/C (%)", "setting": "[4]; 40 mg/kg bid × 21 po", "result": 9.77, "unit": "%"},
      {"measurement": "IC50", "setting": "[5]", "result": "0.0193 ± 0.0034", "unit": "µM"}
    ]}
  ]
}
